Source: ChEMBL document CHEMBL1201862, “PubChem BioAssay data set” (2004)
The source made the active and inactive calls.

How the values were obtained:
[1] = molecular target: T1, Carboxy-terminal domain RNA polymerase II polypeptide A small phosphatase 1 (Homo sapiens, UniProt Q9GZU7); assay: inhibitors of CTDSP1, concentration-response testing, biochemical assay, absorbance-based, actives from ultra-high-throughput screening (AID 540297); assay type: functional
T1 sequence (Q9GZU7 whole entry): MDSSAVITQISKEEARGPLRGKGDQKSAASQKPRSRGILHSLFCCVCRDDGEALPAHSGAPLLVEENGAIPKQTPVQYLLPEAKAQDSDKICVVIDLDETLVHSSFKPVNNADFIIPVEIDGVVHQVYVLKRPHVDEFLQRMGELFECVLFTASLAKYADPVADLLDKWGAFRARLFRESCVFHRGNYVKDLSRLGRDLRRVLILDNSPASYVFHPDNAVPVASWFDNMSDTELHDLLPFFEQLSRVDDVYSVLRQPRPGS

[2] = NIH-3T3 fibroblast cytotoxicity, dose response, cytotoxicity control, cell-based, fluorescence, Alamar Blue, secondary assay (AID 2327); assay type: functional;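 further: NIH-3T3 mouse fibroblasts cultured with fluconazole at 8 µg/mL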
[3] = inhibitors of firefly luciferase expression or activity, dose response, H4 neuroglioma cells, luminescence (AID 1990); assay type: functional, cell-based
BJ [4] = assay: cytotoxicity toward BJ-TERT fibroblasts, dose response, cell-based, RAS-independent, luminescence (AID 1933); assay type: functional; settings: Homo sapiens
[5] = Luminescence Cell-Based Dose Response HTS to Identify Inhibitors of 5'UTR Stem-Loop Driven Prion Protein mRNA Translation in H4 Neuroglioblastoma Cells. [Related pubchem assays: 1827 (Project Summary), 1813 (Primary HTS)]; assay type: functional
[6] = inhibitors of SNCA 5'UTR-driven reporter translation, confirmation, H4 neuroglioma cells, luminescence (AID 1988); assay type: functional, cell-based
BJ [7] = assay: cells; assay type: functional, cell-based; settings: Homo sapiens
[8] = C. albicans growth with fluconazole, confirmation, fluorescence, retest (AID 2467); assay type: functional, cell-based
BJ [9] = assay: cytotoxicity toward BJ-TERT-LT-ST fibroblasts, dose response, cell-based, RAS-independent, luminescence (AID 1935); assay type: functional; settings: Homo sapiens;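 further: BJ fibroblasts immortalized with TERT plus LT and ST oncogenes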
[10] = cytotoxicity toward DRD oncogenic fibroblasts, dose response, cell-based, non-viral oncogenic, luminescence (AID 1934); assay type: functional; settings: Homo sapiens
INS1 = assay: beta cell apoptosis inhibitors, cytokine rescue, dose response, luminescence, retest (AID 449756); assay type: functional, cell-based; settings: Rattus norvegicus;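 further: cell death triggered by IL-1 beta plus TNF-alpha plus IFN-gamma mixture; protective hits raise ATP signal compared with cytokine alone wells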
Aminopeptidase N = molecular target: T2, Aminopeptidase N (Plasmodium falciparum FcB1/Columbia, UniProt O96935); assay: P. falciparum M1AAP inhibitors, biochemical, fluorogenic H-Leu-NHMec substrate, 1536-well (AID 1445); parameters: species or system Plasmodium falciparum 3D7, 3D7
T2 sequence (O96935 whole entry): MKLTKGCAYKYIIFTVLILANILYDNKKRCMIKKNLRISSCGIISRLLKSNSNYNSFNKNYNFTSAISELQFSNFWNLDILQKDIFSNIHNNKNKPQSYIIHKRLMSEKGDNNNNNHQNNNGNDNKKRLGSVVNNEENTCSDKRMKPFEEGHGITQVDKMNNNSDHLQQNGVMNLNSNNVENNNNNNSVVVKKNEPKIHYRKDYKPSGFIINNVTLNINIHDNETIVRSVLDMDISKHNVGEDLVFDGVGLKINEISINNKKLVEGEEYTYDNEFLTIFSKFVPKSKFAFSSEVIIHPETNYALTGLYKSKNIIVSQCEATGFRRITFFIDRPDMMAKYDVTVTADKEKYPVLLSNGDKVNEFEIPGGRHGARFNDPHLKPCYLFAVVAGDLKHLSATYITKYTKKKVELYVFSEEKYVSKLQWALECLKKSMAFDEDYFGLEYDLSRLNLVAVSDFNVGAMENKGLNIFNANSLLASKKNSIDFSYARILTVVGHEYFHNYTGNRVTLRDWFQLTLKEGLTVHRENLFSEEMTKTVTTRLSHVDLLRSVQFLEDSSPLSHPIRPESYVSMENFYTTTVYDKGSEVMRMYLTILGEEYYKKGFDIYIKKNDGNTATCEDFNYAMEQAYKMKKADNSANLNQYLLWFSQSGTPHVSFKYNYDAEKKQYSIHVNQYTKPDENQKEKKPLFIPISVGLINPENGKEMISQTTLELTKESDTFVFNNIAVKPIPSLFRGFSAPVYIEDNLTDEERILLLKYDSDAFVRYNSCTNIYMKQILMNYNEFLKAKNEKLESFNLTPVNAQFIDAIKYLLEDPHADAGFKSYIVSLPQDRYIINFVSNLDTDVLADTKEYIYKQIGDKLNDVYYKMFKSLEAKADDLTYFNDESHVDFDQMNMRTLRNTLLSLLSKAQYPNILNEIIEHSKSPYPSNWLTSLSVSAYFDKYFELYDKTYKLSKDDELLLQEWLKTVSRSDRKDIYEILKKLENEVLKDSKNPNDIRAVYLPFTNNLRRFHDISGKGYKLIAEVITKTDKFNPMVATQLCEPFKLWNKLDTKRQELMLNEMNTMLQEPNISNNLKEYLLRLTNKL

[11] = molecular target: T3, Replicative DNA helicase DnaB (Mycobacterium tuberculosis, UniProt P9WMR3); assay: DnaB intein splicing inhibitors, dose response, biochemical, cell-free fluorescence (AID 449749); assay type: functional
T3 sequence (P9WMR3 whole entry): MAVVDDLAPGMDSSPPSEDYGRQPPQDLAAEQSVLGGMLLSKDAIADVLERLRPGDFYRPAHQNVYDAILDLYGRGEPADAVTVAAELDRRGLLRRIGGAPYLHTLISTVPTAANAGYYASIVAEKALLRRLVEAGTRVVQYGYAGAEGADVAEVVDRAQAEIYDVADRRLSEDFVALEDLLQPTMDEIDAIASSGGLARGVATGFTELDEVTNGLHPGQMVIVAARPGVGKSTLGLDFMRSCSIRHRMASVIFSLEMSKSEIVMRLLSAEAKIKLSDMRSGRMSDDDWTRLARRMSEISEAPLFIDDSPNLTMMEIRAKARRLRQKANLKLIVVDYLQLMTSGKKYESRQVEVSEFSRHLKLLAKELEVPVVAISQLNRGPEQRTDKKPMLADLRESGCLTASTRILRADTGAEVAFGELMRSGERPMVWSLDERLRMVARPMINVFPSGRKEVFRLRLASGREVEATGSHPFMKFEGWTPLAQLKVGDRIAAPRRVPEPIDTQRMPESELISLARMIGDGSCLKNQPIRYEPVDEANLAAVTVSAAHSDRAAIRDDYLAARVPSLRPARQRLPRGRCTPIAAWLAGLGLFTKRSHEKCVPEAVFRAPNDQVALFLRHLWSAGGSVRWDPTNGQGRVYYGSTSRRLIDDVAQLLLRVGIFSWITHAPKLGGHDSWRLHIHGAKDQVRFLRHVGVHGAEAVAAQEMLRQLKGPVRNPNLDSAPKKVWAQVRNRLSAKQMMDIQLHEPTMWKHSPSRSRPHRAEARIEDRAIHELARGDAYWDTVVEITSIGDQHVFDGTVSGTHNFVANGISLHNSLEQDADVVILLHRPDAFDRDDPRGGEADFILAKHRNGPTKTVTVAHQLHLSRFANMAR

Protein RecA = molecular target: T4, Protein RecA (Mycobacterium tuberculosis, UniProt P9WHJ3); assay: Fluorescence Cell-Free Homogeneous Dose Retest to Identify Inhibitors of RecA-Intein Splicing Activity. [Related pubchem assays (depositor defined):AID2097, AID2223, AID489010, AID492950]; assay type: functional
T4 sequence (P9WHJ3 whole entry): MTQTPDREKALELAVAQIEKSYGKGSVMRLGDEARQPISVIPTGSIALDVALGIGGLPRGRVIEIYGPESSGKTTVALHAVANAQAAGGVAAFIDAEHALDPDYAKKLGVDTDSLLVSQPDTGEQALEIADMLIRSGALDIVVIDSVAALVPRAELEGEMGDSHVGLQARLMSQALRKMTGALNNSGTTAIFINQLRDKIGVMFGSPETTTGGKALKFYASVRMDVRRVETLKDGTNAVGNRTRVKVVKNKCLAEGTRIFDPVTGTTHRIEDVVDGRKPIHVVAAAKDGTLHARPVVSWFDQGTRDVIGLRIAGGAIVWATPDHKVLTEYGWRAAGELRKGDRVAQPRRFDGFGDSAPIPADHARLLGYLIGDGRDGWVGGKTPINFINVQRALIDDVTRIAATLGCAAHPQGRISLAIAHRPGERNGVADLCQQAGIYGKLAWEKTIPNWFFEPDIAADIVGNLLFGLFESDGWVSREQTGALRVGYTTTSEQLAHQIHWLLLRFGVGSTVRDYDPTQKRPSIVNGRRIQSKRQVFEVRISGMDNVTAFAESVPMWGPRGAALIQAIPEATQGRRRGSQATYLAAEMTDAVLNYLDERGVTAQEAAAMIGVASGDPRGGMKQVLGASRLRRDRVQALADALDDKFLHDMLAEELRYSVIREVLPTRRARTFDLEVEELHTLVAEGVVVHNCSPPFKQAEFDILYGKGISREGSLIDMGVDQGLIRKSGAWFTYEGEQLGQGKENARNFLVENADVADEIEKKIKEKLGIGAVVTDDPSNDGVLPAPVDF

[12] = molecular target: Glyceraldehyde-3-phosphate dehydrogenase (Homo sapiens, UniProt P04406)
[13] = molecular target: T5, Short transient receptor potential channel 4 (Mus musculus, UniProt Q9QUQ5); assay: mouse TRPC4 channel activators, dose response, cell-based, HEK293 TRPC4/mu-opioid, Fluo-4 calcium (AID 434937); assay type: functional
T5 sequence (Q9QUQ5 whole entry): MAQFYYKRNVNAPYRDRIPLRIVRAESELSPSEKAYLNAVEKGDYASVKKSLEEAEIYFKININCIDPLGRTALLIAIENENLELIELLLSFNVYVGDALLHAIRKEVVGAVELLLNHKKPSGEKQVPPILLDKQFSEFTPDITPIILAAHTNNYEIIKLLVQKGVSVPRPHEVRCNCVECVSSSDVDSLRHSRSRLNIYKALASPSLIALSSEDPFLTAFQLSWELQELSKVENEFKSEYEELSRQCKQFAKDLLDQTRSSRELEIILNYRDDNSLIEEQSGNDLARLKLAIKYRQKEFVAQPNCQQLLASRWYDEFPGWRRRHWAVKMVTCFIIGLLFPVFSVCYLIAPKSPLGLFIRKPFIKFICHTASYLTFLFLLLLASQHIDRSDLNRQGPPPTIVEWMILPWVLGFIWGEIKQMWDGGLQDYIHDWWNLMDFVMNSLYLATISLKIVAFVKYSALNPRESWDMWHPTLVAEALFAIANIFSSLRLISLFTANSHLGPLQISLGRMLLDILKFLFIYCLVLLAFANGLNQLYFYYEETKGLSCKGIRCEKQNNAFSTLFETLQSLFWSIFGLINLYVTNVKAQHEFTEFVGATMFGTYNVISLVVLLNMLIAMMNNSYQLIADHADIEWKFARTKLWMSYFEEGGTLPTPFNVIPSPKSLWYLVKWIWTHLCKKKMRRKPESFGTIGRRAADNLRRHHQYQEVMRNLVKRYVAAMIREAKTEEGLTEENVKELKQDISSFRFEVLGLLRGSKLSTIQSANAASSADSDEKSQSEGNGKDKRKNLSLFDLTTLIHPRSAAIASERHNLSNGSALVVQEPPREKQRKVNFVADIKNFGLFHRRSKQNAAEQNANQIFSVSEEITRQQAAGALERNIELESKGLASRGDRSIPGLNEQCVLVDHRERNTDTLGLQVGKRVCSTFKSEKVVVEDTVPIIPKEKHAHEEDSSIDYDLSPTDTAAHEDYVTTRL

[14] = molecular target: DNA dC->dU-editing enzyme APOBEC-3G (Homo sapiens, UniProt Q9HC16); assay: Dose Response confirmation of small molecule APOBEC3G DNA Deaminase Inhibitors via a fluorescence-based single-stranded DNA deaminase assay. [Related pubchem assays (depositor defined):AID493012, AID493028]; assay type: functional
cells = assay type: functional
[15] = microbe, parasite or virus in culture; assay type: functional; settings: Mycobacterium tuberculosis
[16] = THP-1 cell cytotoxicity, dose response, cytotoxicity control for non-replicating M. tuberculosis project (AID 489025); assay type: functional

Sequence of Glyceraldehyde-3-phosphate dehydrogenase (P04406 whole entry): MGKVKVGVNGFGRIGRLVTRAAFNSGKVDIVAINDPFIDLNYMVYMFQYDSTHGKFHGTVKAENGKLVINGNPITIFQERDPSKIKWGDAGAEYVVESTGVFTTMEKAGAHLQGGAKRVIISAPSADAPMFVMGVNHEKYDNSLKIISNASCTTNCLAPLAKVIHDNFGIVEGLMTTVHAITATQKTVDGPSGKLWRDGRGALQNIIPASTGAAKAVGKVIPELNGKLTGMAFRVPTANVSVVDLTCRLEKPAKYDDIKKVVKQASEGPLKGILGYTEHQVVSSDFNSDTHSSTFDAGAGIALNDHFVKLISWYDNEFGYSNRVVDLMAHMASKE
Sequence of DNA dC->dU-editing enzyme APOBEC-3G (Q9HC16 whole entry): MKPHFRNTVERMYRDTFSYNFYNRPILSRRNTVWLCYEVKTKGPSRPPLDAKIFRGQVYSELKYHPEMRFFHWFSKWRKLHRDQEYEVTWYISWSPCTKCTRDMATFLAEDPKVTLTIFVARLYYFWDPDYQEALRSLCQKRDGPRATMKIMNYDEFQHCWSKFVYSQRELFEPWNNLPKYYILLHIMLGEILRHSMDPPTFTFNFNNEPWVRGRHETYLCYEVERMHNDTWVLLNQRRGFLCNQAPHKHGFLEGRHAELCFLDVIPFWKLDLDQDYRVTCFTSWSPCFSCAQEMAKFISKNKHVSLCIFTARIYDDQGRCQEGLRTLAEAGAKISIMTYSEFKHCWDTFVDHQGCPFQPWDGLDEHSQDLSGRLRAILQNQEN

c1ccc(-c2cc(-c3nn4c(-c5ccco5)nnc4s3)c3ccccc3n2)cc1
IC50 [1]: 16.6 µM (active)

COc1ccc(-[n+]2c(-c3ccccc3)cc(-c3ccccc3)cc2-c2ccccc2)cc1.[O-][Cl+3]([O-])([O-])[O-]
EC50 [2]: 40.7 µM (active)
EC50 [3]: 11 µM (active)
EC50 (BJ [4]): 11.7 µM (inconclusive)
EC50 [5]: > 120 µM (not active)
EC50 [6]: 17.9 µM (active)
EC50 (BJ [7]): 14.1 µM (active)
EC50 [8]: 0.046 µM (active)
EC50 (BJ [9]): > 150 µM (inconclusive)
EC50 [10]: 14.1 µM (active)
AC50 (INS1): 1.33 µM (active)

CC(=O)NC(=S)NNC(=O)COc1ccc(Br)cc1
IC50 (Aminopeptidase N): 2.57 µM (active)

O=C(NC1CCCC1)C(c1ccc(F)cc1)N(Cc1ccccc1Cl)C(=O)CCl (stereo not given)
EC50 (BJ [4]): 5.5 µM (active)
EC50 (BJ [7]): 14.8 µM (active)
EC50 (BJ [9]): > 150 µM (inconclusive)
EC50 [10]: 8.7 µM (active)
AC50 [11]: > 380 µM (inactive)
EC50 (Protein RecA): 0.215 µM (active)

O=C(O)c1cc(NS(=O)(=O)c2cccc3cccnc23)ccc1O
IC50 [12]: > 100 µM (not active)

Cc1ccc(C2N(c3ccc(Cl)c(Cl)c3)C(=O)C3CCCN32)o1 (stereo not given)
EC50 [13]: 4.22 µM (active)

O=C(NCc1cccs1)C1CCN(S(=O)(=O)c2ccccc2F)CC1
IC50 (Aminopeptidase N): 51 µM (active)

CCOC(=O)C1(CCc2ccccc2)CCN(Cc2c(O)cccc2OC)CC1
EC50 [13]: 0.299 µM (active)

Oc1nc(-c2ccncc2)nc2ccccc12
IC50 [14]: 44.8 µM (active)

Cc1noc(NS(=O)(=O)c2ccc(NC(=O)CSc3nnc(-c4ccccc4)n3C3CCCCC3)cc2)c1C
IC50 (Aminopeptidase N): 75.9 µM (active)

CC(C)(C)NC(=O)C(=O)NNC(=O)COc1ccc(Br)cc1
IC50 (Aminopeptidase N): 619 µM (active)
IC50 (cells): 17.9 µM (active)

Cc1csc(NC(=O)CSCC(=O)O)c1-c1nc2ccccc2s1
IC50 (Aminopeptidase N): 7.09 µM (active)

C=C1CCC[C@]2(C)C[C@H]3OC(=O)C(CNC(C)CCCC(C)C)[C@H]3CC12 (stereo not given in full)
CC50 [15]: 27 µM (active)
CC50 [16]: 22.1 µM (active)
IC50 (cells): 30.6 µM (active)

S=C(NCCc1c[nH]cn1)NC1CCCC1
EC50 [13]: 0.084 µM (active)

COc1ccc(-c2nc(CN3CCC(C(=O)NC4CCCC4)CC3)c(C)o2)cc1OC
EC50 [13]: 0.473 µM (active)

c1ccc2oc(N3CCNCC3)nc2c1
EC50 [13]: 0.668 µM (active)

O=C(NCCCO)c1cc(-c2ccc(Cl)cc2Cl)n[nH]1
IC50 [12]: > 10 µM (inconclusive)

CN(C)/C=C/C=C1C(=O)CCCC1=O
IC50 [1]: 7.28 µM (active)
